What was measured:
ZIKV NS5 polymerase = biological target: T1, ZIKV NS5 polymerase (Zika virus, UniProt A0A024B7W1); assay: Polymerase activity assay (non-radioactive primer extension); type: biochemical; conditions: NS5 20 nM, Primer/Template 10 nM, 2 h at 37 °C, quantified by amount of RNA products; read-out: IC50 of RdRp-catalyzed RNA synthesis
T1 construct: NS5 (amino acids 1 to 903); His tag (8x histidine) (N); made in house; host or cells: Escherichia coli (Rosetta)
Procedure: ZIKV NS5 polymerase activity was determined using a primer extension reaction with a fluorescently labeled RNA primer/RNA template complex (P/T) as described by Lu et al.. Briefly, fluorescently labeled oligonucleotide primer (Cy5-RNA) and unlabeled RNA template were mixed and then slowly cooled down for annealing. A typical primer extension reaction was performed by ZIKV NS5 polymerase at various concentrations, followed by incubation for 2 h at 37 °C. To determine the inhibitory activity of fidaxomicin, the polymerase reactions were initiated by addition of fidaxomicin at gradient concentrations ranging between 0 and 200 μM. The products were detected by denaturing polyacrylamide gel electrophoresis (Urea PAGE), and the results were scanned using an Odyssey infrared imaging system (LI-COR Biosciences, Lincoln, NE). The images were analyzed, and proper RNA bands were quantified using Image J software version 1.52a (NIH, Bethesda, MD, USA).

ZIKV ZG-01 strain = assay: In vitro antiviral assay, plaque assay, ZIKV ZG-01
Procedure: The anti-ZIKV activity of fidaxomicin and ribavirin was evaluated in vitro by plaque assay. Various cell lines, including SNB19 (6 × 10^4/well, 10% FBS DMEM), A172 (7 × 10^4/well, 10% FBS DMEM), Vero (6 × 10^4/well 10% FBS DMEM), Huh7 (7 × 10^4/well, 10% FBS DMEM), HUVECs (7 × 10^4/well, 15% FBS M199 medium supplemented with 2 mM L-glutamine, 0.02 mg/mL endothelial cell growth supplement, and 0.05 mg/mL heparin), and A549 (6 × 10^4/well, 5% FBS DMEM), were plated in 12-well plates and allowed to attach overnight, followed by infection with ZIKV (ZG-01 strain or MR766 strain, respectively, at indicated MOI) in the presence of different concentrations of fidaxomicin, ribavirin, or vehicle control for 1 h, followed by two washes with 1 × PBS and incubated with fresh medium (without virus) consisting of corresponding concentrations of the compounds for further 48 h. The cell supernatants were collected to quantify ZIKV infection by plaque assay as previously described or by RT-qPCR. […] The anti-DENV activity of fidaxomicin was evaluated in vitro by RT-qPCR.

[1] = Description: a. […] Data are expressed as mean ± SD. WBC: white blood cells; Lymph: lymphocytes; Mon: monocytes; Gran: granulocytes; RBC: red blood cells; HGB: hemoglobin concentration; HCT: hematocrit; MCV: mean corpuscular volume; MCH: mean corpuscular hemoglobin; MCHC: mean corpuscular hemoglobin concentration; RDW: red blood cell distribution width; PLT: platelets; MPV: mean platelet volume; PDW: platelet distribution width.
a. […] Data are expressed as mean ± SD. ALT: alanine aminotransferase; AST: aspartate aminotransferase; T-BIL: total bilirubin; ALB: albumin; γ-GT: γ-glutamyltransferase; ALP: alkaline phosphatase; TBA: total bile acid; BUN: blood urea nitrogen; UA: uric acid; CR: creatinine; T-CHO: total cholesterol; TG: triglyceride.
a. […] Data are expressed as mean ± SD.

ZIKV (ZG-01) = assay: Western blotting of ZIKV proteins in infected SNB19 cells; type: cell-based, Zika virus
Procedure: Tissue specimens obtained from mice or cells were lysed with RIPA lysis buffer (Millipore, Bedford, MA) containing a cocktail of protease and phosphatase inhibitors (Sigma-Aldrich, St. Louis, MO, USA). Protein concentrations were measured with a bicinchoninic acid (BCA) protein assay (Thermo Fisher Scientific, Rockford, IL, USA). Protein samples were separated by sodium dodecyl sulfate-polyacrylamide gel electrophoresis (SDS-PAGE) and transferred onto a polyvinylidene difluoride (PVDF) membrane. Non-specific antibody binding sites were blocked with 5% non-fat milk in Tris-buffered saline (TBS) (20 mM Tris-HCl [pH 7.6], 135 mM NaCl, and 0.1% Tween 20) for 1 h at room temperature and then incubated with the following primary antibodies: anti-STAT2 (1:1000, sc166201, Santa Cruz Biotechnology, Santa Cruz, CA, USA), anti-ZIKV E (1:1000, BF-1176-56, BioFront Technologies, Tallahassee, USA), anti-ZIKV NS5 (1:1000, BF-6A1-100UG, BioFront), and anti-ZIKV NS3 (1:1000, GTX133309, GeneTex, Alton Pkwy, Irvine, CA, USA). Anti-GAPDH (1:2000, ab181602, Abcam, Cambridge, MA, USA) or mouse anti-GAPDH (1:1000, ab9484, Abcam) was used as a loading control. […] The relative protein level was quantified by densitometry and normalized to GAPDH or mGAPDH level using Image J software (NIH, Bethesda, MD, USA).

in vitro = conditions: African green monkey
Procedure: Cell viability was detected by the 3-(4,5-dimethyl-2-thiazolyl)-2,5-diphenyl-2H-tetrazolium bromide (MTT) assay according to a previously described method [48]. Briefly, cells were seeded in 96-well plates at a density of 1 × 10^4 cells per well and cultured at 37 °C for 24 h, followed by exposure to the serially diluted fidaxomicin or ribavirin separately for 48 h. Cell survival rate was determined by MTT reduction assay according to the manufacturer’s protocol (Invitrogen). The 50% cytotoxic concentration (CC50) was defined as the compound concentration required to inhibit the cell growth by 50% compared with the control assay. The assay was performed in triplicates in three independent experiments.

[2] = in vivo, po; cited from earlier work

T1 sequence (A0A024B7W1 2521-3423): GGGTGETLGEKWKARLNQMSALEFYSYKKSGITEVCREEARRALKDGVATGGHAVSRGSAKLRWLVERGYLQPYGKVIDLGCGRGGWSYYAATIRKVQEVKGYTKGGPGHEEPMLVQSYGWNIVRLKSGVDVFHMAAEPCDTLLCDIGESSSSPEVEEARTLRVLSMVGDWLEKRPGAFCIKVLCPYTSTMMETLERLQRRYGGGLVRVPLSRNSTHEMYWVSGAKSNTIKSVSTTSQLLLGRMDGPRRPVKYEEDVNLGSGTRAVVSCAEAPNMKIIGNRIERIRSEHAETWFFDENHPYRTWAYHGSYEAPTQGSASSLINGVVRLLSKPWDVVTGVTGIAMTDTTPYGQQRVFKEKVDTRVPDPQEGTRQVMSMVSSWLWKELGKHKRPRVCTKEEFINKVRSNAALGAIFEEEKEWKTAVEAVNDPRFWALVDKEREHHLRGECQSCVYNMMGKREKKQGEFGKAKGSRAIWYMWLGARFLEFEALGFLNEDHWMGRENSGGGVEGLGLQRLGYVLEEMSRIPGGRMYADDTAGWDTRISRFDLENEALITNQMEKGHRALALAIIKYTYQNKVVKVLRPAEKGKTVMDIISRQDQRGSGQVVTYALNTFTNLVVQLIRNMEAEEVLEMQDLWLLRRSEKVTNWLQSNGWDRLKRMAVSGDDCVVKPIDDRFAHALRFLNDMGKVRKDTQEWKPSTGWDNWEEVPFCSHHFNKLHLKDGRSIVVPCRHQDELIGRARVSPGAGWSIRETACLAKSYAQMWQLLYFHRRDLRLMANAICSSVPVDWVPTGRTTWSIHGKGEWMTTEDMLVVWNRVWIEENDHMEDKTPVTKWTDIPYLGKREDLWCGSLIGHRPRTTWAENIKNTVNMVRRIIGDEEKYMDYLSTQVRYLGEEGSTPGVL

## CCc1c(Cl)c(O)c(Cl)c(O)c1C(=O)O[C@H]1[C@H](O)[C@H](OC)[C@H](OC/C2=C\C=C\C[C@H](O)/C(C)=C/[C@H](CC)[C@@H](O[C@@H]3OC(C)(C)[C@@H](OC(=O)C(C)C)[C@H](O)[C@@H]3O)/C(C)=C/C(C)=C/C[C@@H]([C@@H](C)O)OC2=O)O[C@@H]1C [Fidaxomicin]
ZIKV NS5 polymerase
  IC50: 10.9 µM
ZIKV ZG-01 strain; SNB19 cells
  EC50 lower than that of ribavirin: 10 fold
ZIKV ZG-01 strain; SNB19 cells, plaque assay
  concentration above which ZIKV infection was completely undetectable: exceeded 18 μM
ZIKV ZG-01 strain; SNB19 cells, plaque assay, 48 h
  EC90: 8.9 ± 0.6 µM
ZIKV ZG-01 strain; Zika virus, A549, 48 h
  EC50: 12.2 ± 3.6 µM
ZIKV ZG-01 strain; Zika virus, A549, 48 h, A549 cells, plaque assay, 48 h
  EC90: 39.5 ± 4.8 µM
ZIKV ZG-01 strain; Zika virus, Huh-7, 48 h
  EC50: 7.7 ± 1.7 µM
ZIKV ZG-01 strain; Zika virus, Huh-7, 48 h, Huh7 cells, plaque assay, 48 h
  EC90: 17.8 ± 3.5 µM
ZIKV ZG-01 strain; Zika virus, SNB-19, 48 h
  EC50: 6 ± 1 µM
ZIKV ZG-01 strain; Zika virus, SNB-19, 48 h, SNB19 cells, plaque assay, 48 h
  EC90: ~9 µM
ZIKV ZG-01 strain; Zika virus, Vero, 48 h
  EC50: 11.7 ± 2.1 µM
ZIKV ZG-01 strain; Zika virus, Vero, 48 h, Vero cells, plaque assay
  EC90: 48.2 ± 5.3 µM
[1]; C57BL/6J (Ifnar1-/-), mouse, in vivo, 10 days
  maximum non-toxic dose: > 200 mg/kg
[1]; Ifnar1-/- C57BL/6J mice, 200 mg/kg, 10-day treatment, mean ± SD
  MPV: 4.95 ± 0.59 fL
[1]; mouse, in vivo, 200 mg/kg
  ALB: 29.11 ± 5.19 g/L
  ALP: 185.3±19.2 U/L
  ALT: 39.1±4.22 U/L
  AST: 130.74±18.3 U/L
  BUN: 31.6 ± 3.54 mg/dL
  CR: 17.62 ± 1.84 µmol/L
  Gran#: 0.92±0.23 10^9/L
  Gran%: 19.82±4.42%
  HCT: 38.96±2.72%
  HGB: 124.14 ± 14.36 g/L
  Lymph#: 3.21±1.01 10^9/L
  Lymph%: 75.75±8.94%
  MCH: 14.73 ± 0.88 pg
  MCHC: 302 ± 21.82 g/L
  MCV: 51.61 ± 1.84 fL
  Mon#: 0.16±0.07 10^9/L
  Mon%: 3.75±0.94%
  PDW: 16.65±0.35
  PLT: 891.6±337.3 10^9/L
  RBC: 7.51±1.44 10^12/L
  RDW: 17.56±1.04%
  T-BIL: 21.14 ± 1.87 µmol/L
  T-CHO: 3.12 ± 1.33 mmol/L
  TBA: 12.75 ± 1.54 µmol/L
  TG: 2.11 ± 0.45 mmol/L
  UA: 182.61 ± 23.8 µmol/L
  WBC: 4.25±1.11 10^9/L
  γ-GT: 2.75±0.81 U/L
ZIKV (ZG-01); SNB19 cell lysates, time-dependent
  amount of ZIKV NS3 protein: decreased
ZIKV (ZG-01); SNB19 cells, MOI 1.0 and 2.0
  ZIKV NS5 and E proteins: decreased
In vitro
  CC50 at 48 h: 126 ± 10.3 µM
[2]
  absorption through the gastrointestinal tract: minimally absorbed
  plasma concentration: nanogram-per-milliliter scale

— paper PMC7392643, “Antibiotic fidaxomicin is an RdRp inhibitor as a potential new therapeutic agent against Zika virus” (BMC Medicine, 2020)
